# In US20060069132A1, “Azolecarboxamide herbicides” (priority 2004, published 2006):
# What was measured:
# pigweed = test: Test C pre-/postemergence herbicide test; format: in vivo, Amaranthus retroflexus
# In short: (§1)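 Greenhouse-grown plants were evaluated visually 12 to 14 days after treatment, with 100 meaning complete control and 0 no effect. Application was preemergence, or postemergence at 2 to 18 cm.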
# large crabgrass = test: Test A pre-/postemergence herbicide test; format: in vivo, Digitaria sanguinalis
# In short: (§2)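 Plants are held in greenhouse about ten days after treatment, then compared with untreated controls and scored 0 (no effect) to 100 (complete control). Preemergence dosing is a directed soil spray on sown sandy loam; postemergence dosing is spray to runoff at 2–10 cm height.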
# rice [1] = test: Test B pre-/postemergence herbicide test; format: in vivo, Oryza sativa; settings: preemergence
# In short: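 Response was scored visually 13 to 15 days after treatment against untreated greenhouse controls, 0 meaning no effect and 100 complete control. Formulations (solvent mixture plus surfactant) went onto soil after planting, onto foliage of 1- to 4-leaf plants, and onto 2-leaf plants in a flooded paddy set including rice and barnyardgrass.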
# lambsquarters = test: Test C pre-/postemergence herbicide test; format: in vivo, Chenopodium album
# In short: as §1
# goosegrass = test: Test C pre-/postemergence herbicide test; format: in vivo, Eleusine indica
# In short: as §1
# giant foxtail = test: Test C pre-/postemergence herbicide test; format: in vivo, Setaria faberi
# In short: as §1
# redroot pigweed = test: Test A pre-/postemergence herbicide test; format: in vivo, Amaranthus retroflexus
# In short: as §2
# barnyardgrass = test: Test C flooded paddy test; format: in vivo, Echinochloa crus-galli; settings: for Plant response rating, Barnyardgrass: 500 g ai/ha, visual rating after 12 to 14 days
# In short: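 Greenhouse test with a 12–14 day hold after application and visual comparison with controls. Emerged plants were 1- to 4-leaf stage (2–18 cm) when sprayed postemergence, and the paddy barnyardgrass was at 2 leaves under flooded conditions. 100 = complete control.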
# rice [2] = test: Test C flooded paddy test; format: in vivo, Oryza sativa; settings: for Plant response rating, Rice: 500 g ai/ha, visual rating after 12 to 14 days
# In short: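 Postemergence sprays applied to plants 2 to 18 cm tall (1- to 4-leaf stage); paddy species grown to 2-leaf stage under flooding. After 12 to 14 days in greenhouse, visual rating versus untreated controls on 0–100 scale (0 no effect, 100 complete control).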
# [3] = Postemergence, 500 g ai/ha, scale 0 to 100
# [4] = Postemergence, 250 g ai/ha, scale 0 to 100, 0 no effect, 100 complete control
# [5] = postemergence, 125 g ai/ha, scale 0 to 100
# [6] = postemergence, 62 g ai/ha, scale 0 to 100
# [7] = Postemergence, 500 g ai/ha, 0 to 100 scale, 0 no effect, 100 complete control
# [8] = Postemergence, 2000 g ai/ha, 0 to 100 scale, 0 no effect, 100 complete control
# [9] = Preemergence, 500 g ai/ha, visual rating, 0 to 100 scale (0 no effect, 100 complete control)
# [10] = Preemergence, 2000 g ai/ha, 0 to 100 scale, 0 no effect, 100 complete control
# [11] = 62 g ai/ha, preemergence, scale 0 to 100
# [12] = 125 g ai/ha, scale 0 (no effect) to 100 (complete control), visual, 12 to 14 days, preemergence
# [13] = 250 g ai/ha, scale 0-100, preemergence
# [14] = 500 g ai/ha, scale 0 to 100 (0 no effect, 100 complete control), visual, 12 to 14 days, preemergence
# [15] = 62 g ai/ha, scale 0 to 100 (0 no effect, 100 complete control)
# [16] = 125 g ai/ha, scale 0 to 100 (0 no effect, 100 complete control)
# [17] = 250 g ai/ha, scale of 0 to 100, 0 is no effect, 100 is complete control
# [18] = scale 0 to 100 (0 no effect, 100 complete control)
# [19] = 125 g ai/ha, 0 = no effect, 100 = complete control
# [20] = 500 g ai/ha, visual rating, 0 = no effect, 100 = complete control
structure (smiles),measurement,setting,value
CCCCOC(=O)c1cccc(NC(=O)c2cc(C(C)(C)C)nn2CC)c1 [Compound 86],Pigweed plant response rating,pigweed; [3],100
same,"Plant response rating, Pigweed",pigweed; [4],100
same,"Plant response rating, Pigweed",pigweed; [5],100
same,"Plant response rating, Pigweed",pigweed; [6],100
same,"Crabgrass, Large plant response rating",large crabgrass; [7],20
same,"Plant response rating, Crabgrass, Large",large crabgrass; [8],25
same,"Crabgrass, Large plant response rating",large crabgrass; [9],0
same,"Crabgrass, Large plant response rating",large crabgrass; [10],0
same,"Plant response rating, Rice","rice [1]; 125 g ai/ha, 0 to 100 scale, 0 is no effect, 100 is complete control",0
same,Lambsquarters plant response rating,lambsquarters; [3],100
same,"Plant response rating, Lambsquarters",lambsquarters; [4],100
same,"Plant response rating, Lambsquarters",lambsquarters; [5],100
same,"Plant response rating, Lambsquarters",lambsquarters; [6],100
same,Goosegrass plant response rating,goosegrass; [3],85
same,"Plant response rating, Goosegrass",goosegrass; [4],80
same,"Plant response rating, Goosegrass",goosegrass; [5],60
same,"Plant response rating, Goosegrass",goosegrass; [6],50
same,"Foxtail, Giant plant response rating",giant foxtail; [3],70
same,"Plant response rating, Foxtail, Giant",giant foxtail; [4],50
same,"Plant response rating, Foxtail, Giant",giant foxtail; [5],20
same,"Plant response rating, Foxtail, Giant",giant foxtail; [6],10
same,Pigweed plant response rating,redroot pigweed; [7],55
same,"Plant response rating, Pigweed",redroot pigweed; [8],95
same,Pigweed plant response rating,redroot pigweed; [9],0
same,Pigweed plant response rating,redroot pigweed; [10],55
CCn1nc(C2(C)CC2)cc1C(=O)Nc1cc(C(=O)N(C)C)ccc1F [Compound 299],"Plant response rating, Pigweed",pigweed; [11],100
same,"Plant response rating, Pigweed",pigweed; [12],100
same,"Plant response rating, Pigweed",pigweed; [13],100
same,"Plant response rating, Pigweed",pigweed; [14],100
same,Barnyardgrass plant response rating,barnyardgrass; [15],85
same,Barnyardgrass plant response rating,barnyardgrass; [16],85
same,Barnyardgrass plant response rating,barnyardgrass; [17],95
same,"Plant response rating, Barnyardgrass",barnyardgrass; [18],95
same,Rice plant response rating (0 to 100 scale),rice [1]; [19],80
same,"Plant response rating, Rice",rice [1]; [20],90
same,"Plant response rating, Lambsquarters",lambsquarters; [11],100
same,"Plant response rating, Lambsquarters",lambsquarters; [12],100
same,"Plant response rating, Lambsquarters",lambsquarters; [13],100
same,"Plant response rating, Lambsquarters",lambsquarters; [14],100
same,Rice plant response rating,"rice [2]; 62 g ai/ha, scale 0 to 100",70
same,Rice plant response rating,rice [2]; [16],80
same,Rice plant response rating,rice [2]; [17],80
same,"Plant response rating, Rice",rice [2]; [18],85
same,"Plant response rating, Goosegrass",goosegrass; [11],100
same,"Plant response rating, Goosegrass",goosegrass; [12],100
same,"Plant response rating, Goosegrass",goosegrass; [13],100
same,"Plant response rating, Goosegrass",goosegrass; [14],100
same,"Plant response rating, Foxtail, Giant",giant foxtail; [11],100
same,"Plant response rating, Foxtail, Giant",giant foxtail; [12],100
same,"Plant response rating, Foxtail, Giant",giant foxtail; [13],100
same,"Plant response rating, Foxtail, Giant",giant foxtail; [14],100
CCn1nc(C(C)(C)C)cc1C(=S)Nc1cc(C(=S)N(C)C)ccc1F [Compound 305],"Plant response rating, Pigweed",pigweed; [11],100
same,"Plant response rating, Pigweed",pigweed; [12],100
same,"Plant response rating, Pigweed",pigweed; [13],100
same,"Plant response rating, Pigweed",pigweed; [14],100
same,Barnyardgrass plant response rating,barnyardgrass; [15],70
same,Barnyardgrass plant response rating,barnyardgrass; [16],85
same,Barnyardgrass plant response rating,barnyardgrass; [17],95
same,"Plant response rating, Barnyardgrass",barnyardgrass; [18],100
same,Rice plant response rating (0 to 100 scale),rice [1]; [19],70
same,"Plant response rating, Rice",rice [1]; [20],80
same,"Plant response rating, Lambsquarters",lambsquarters; [11],100
same,"Plant response rating, Lambsquarters",lambsquarters; [12],100
same,"Plant response rating, Lambsquarters",lambsquarters; [13],100
same,"Plant response rating, Lambsquarters",lambsquarters; [14],100
same,Rice plant response rating,"rice [2]; 62 g ai/ha, scale 0 to 100",75
same,Rice plant response rating,rice [2]; [16],80
same,Rice plant response rating,rice [2]; [17],85
same,"Plant response rating, Rice",rice [2]; [18],85
same,"Plant response rating, Goosegrass",goosegrass; [11],80
same,"Plant response rating, Goosegrass",goosegrass; [12],85
same,"Plant response rating, Goosegrass",goosegrass; [13],95
same,"Plant response rating, Goosegrass",goosegrass; [14],95
same,"Plant response rating, Foxtail, Giant",giant foxtail; [11],35
same,"Plant response rating, Foxtail, Giant",giant foxtail; [12],85
same,"Plant response rating, Foxtail, Giant",giant foxtail; [13],100
same,"Plant response rating, Foxtail, Giant",giant foxtail; [14],100
CCNC(=O)c1cccc(NC(=O)c2cc(C3(C)CC3)nn2CC)c1 [Compound 306],"Plant response rating, Pigweed",pigweed; [11],100
same,"Plant response rating, Pigweed",pigweed; [12],100
same,"Plant response rating, Pigweed",pigweed; [13],100
same,"Plant response rating, Pigweed",pigweed; [14],100
same,Barnyardgrass plant response rating,barnyardgrass; [15],0
same,Barnyardgrass plant response rating,barnyardgrass; [16],45
same,Barnyardgrass plant response rating,barnyardgrass; [17],55
same,"Plant response rating, Barnyardgrass",barnyardgrass; [18],70
same,Rice plant response rating (0 to 100 scale),rice [1]; [19],60
same,"Plant response rating, Rice",rice [1]; [20],80
same,"Plant response rating, Lambsquarters",lambsquarters; [11],100
same,"Plant response rating, Lambsquarters",lambsquarters; [12],100
same,"Plant response rating, Lambsquarters",lambsquarters; [13],100
same,"Plant response rating, Lambsquarters",lambsquarters; [14],100
same,Rice plant response rating,"rice [2]; 62 g ai/ha, scale 0 to 100",30
same,Rice plant response rating,rice [2]; [16],40
same,Rice plant response rating,rice [2]; [17],55
same,"Plant response rating, Rice",rice [2]; [18],70
same,"Plant response rating, Goosegrass",goosegrass; [11],50
same,"Plant response rating, Goosegrass",goosegrass; [12],70
same,"Plant response rating, Goosegrass",goosegrass; [13],100
same,"Plant response rating, Goosegrass",goosegrass; [14],100
same,"Plant response rating, Foxtail, Giant",giant foxtail; [11],5
same,"Plant response rating, Foxtail, Giant",giant foxtail; [12],40
same,"Plant response rating, Foxtail, Giant",giant foxtail; [13],90
same,"Plant response rating, Foxtail, Giant",giant foxtail; [14],100
CCn1nc(C(C)(C)C)cc1C(=O)Nc1cccc(OC(F)F)c1 [Compound 332],"Plant response rating, Pigweed",pigweed; [11],100
same,"Plant response rating, Pigweed",pigweed; [12],100
same,"Plant response rating, Pigweed",pigweed; [13],100
same,"Plant response rating, Pigweed",pigweed; [14],100
same,Pigweed plant response rating,pigweed; [3],95
same,"Plant response rating, Pigweed",pigweed; [4],95
same,"Plant response rating, Pigweed",pigweed; [5],90
same,"Plant response rating, Pigweed",pigweed; [6],85
same,Barnyardgrass plant response rating,barnyardgrass; [15],5
same,Barnyardgrass plant response rating,barnyardgrass; [16],25
same,Barnyardgrass plant response rating,barnyardgrass; [17],50
same,"Plant response rating, Barnyardgrass",barnyardgrass; [18],60
same,"Plant response rating (0 to 100 scale), Rice","rice [1]; 125 g ai/ha, 0 is no effect, 100 is complete control",20
same,"Plant response rating, Rice",rice [1]; [20],40
same,"Plant response rating, Lambsquarters",lambsquarters; [11],100
same,"Plant response rating, Lambsquarters",lambsquarters; [12],100
same,"Plant response rating, Lambsquarters",lambsquarters; [13],100
same,"Plant response rating, Lambsquarters",lambsquarters; [14],100
same,Lambsquarters plant response rating,lambsquarters; [3],100
same,"Plant response rating, Lambsquarters",lambsquarters; [4],100
same,"Plant response rating, Lambsquarters",lambsquarters; [5],65
same,"Plant response rating, Lambsquarters",lambsquarters; [6],50
same,Rice plant response rating,"rice [2]; 62 g ai/ha, scale 0 to 100",0
same,Rice plant response rating,rice [2]; [16],0
same,Rice plant response rating,rice [2]; [17],45
same,"Plant response rating, Rice",rice [2]; [18],70
same,"Plant response rating, Goosegrass",goosegrass; [11],80
same,"Plant response rating, Goosegrass",goosegrass; [12],85
same,"Plant response rating, Goosegrass",goosegrass; [13],100
same,"Plant response rating, Goosegrass",goosegrass; [14],100
same,Goosegrass plant response rating,goosegrass; [3],60
same,"Plant response rating, Goosegrass",goosegrass; [4],15
same,"Plant response rating, Goosegrass",goosegrass; [5],15
same,"Plant response rating, Goosegrass",goosegrass; [6],10
same,"Plant response rating, Foxtail, Giant",giant foxtail; [11],0
same,"Plant response rating, Foxtail, Giant",giant foxtail; [12],20
same,"Plant response rating, Foxtail, Giant",giant foxtail; [13],60
same,"Plant response rating, Foxtail, Giant",giant foxtail; [14],80
same,"Foxtail, Giant plant response rating",giant foxtail; [3],20
same,"Plant response rating, Foxtail, Giant",giant foxtail; [4],15
same,"Plant response rating, Foxtail, Giant",giant foxtail; [5],10
same,"Plant response rating, Foxtail, Giant",giant foxtail; [6],10
